Where “and” joins values, the source holds several entries; their conditions need not be identical. Equal entries are not always repeated. Where two headings read alike, the source gives them in different places.
Legend:
[1] = system: subjects with insomnia disorder; test: Phase 1 crossover polysomnography (PSG) study in subjects with insomnia disorder; format: in vivo, human
[2] = Plasma concentration (pharmacokinetics) after single oral dose in humans; format: in vivo, human; conditions: for half-life / Tmax / AUC(0-t) / Cmax / AUC(0-inf): male, human, plasma; for half-life / Tmax: po; for AUC(0-inf): read-out: AUCinf Mean
Procedure: The plasma concentration of Compound (1D) was evaluated in humans for up to 36 hours after administration of a single oral dose of 3, 10, or 30 mg of Compound (1D) in the form of a methyl cellulose suspension. Four healthy male subjects were administered each dose.
FIG. 19A provides a plot of the human plasma concentration of Compound (1D) on a linear scale versus linear time in hours at each dose: 3, 10, and 30 mg. FIG. 19B provides the same results in a plot of human plasma concentration of Compound (1D) on a logarithmic scale versus linear time at each dose. The target plasma exposure indicated in FIG. 19A relates to the effective dose in 80% of subjects from rat modeling results.

in vivo = conditions: male, Crl:CD(SD), rat, po, no-observed-adverse-effect-level (NOAEL)
[3] = Change from Baseline, 10 mg oral
[4] = Compound (1D) versus placebo, 10 mg oral
[5] = Treatment Period 1 Night 1, 10 mg oral
[6] = Treatment Period 1 Night 2, 10 mg oral
[7] = Treatment Period 2 Night 1, 10 mg oral
[8] = Treatment Period 2 Night 2, 10 mg oral
[9] = Treatment Period Mean, 10 mg oral

Compound: O=C(O)c1nc2ccccc2n([C@H]2C[C@H]3CCC[C@@H](C2)N3C2CC3CCCC(C3)C2)c1=O (some centres unmarked) [Compound (1D)]
- Latency to Persistent Sleep (LPS) LSM (STDE) [1, 3]: −32.33 (4.580) Minutes
- Latency to Persistent Sleep (LPS) Maximum [1, 3]: 8.75 min
- Latency to Persistent Sleep (LPS) Mean (SD) [1, 3]: −29.918 (23.3435) Minutes
- Latency to Persistent Sleep (LPS) Median [1, 3]: -27.250 min
- Latency to Persistent Sleep (LPS) Minimum [1, 3]: -87.75 min
- Total Sleep Time (TST) LSM (STDE) [1, 3]: 69.44 (12.870) Minutes
- Total Sleep Time (TST) Maximum [1, 3]: 198.00 min
- Total Sleep Time (TST) Mean (SD) [1, 3]: 69.955 (49.2950) Minutes
- Total Sleep Time (TST) Median [1, 3]: 73.750 min
- Total Sleep Time (TST) Minimum [1, 3]: -59.80 min
- Wake After Sleep Onset (WASO) LSM (STDE) [1, 3]: −50.04 (5.990) Minutes
- Wake After Sleep Onset (WASO) Maximum [1, 3]: 29.50 min
- Wake After Sleep Onset (WASO) Mean (SD) [1, 3]: −50.545 (42.1544) Minutes
- Wake After Sleep Onset (WASO) Median [1, 3]: -47.250 min
- Wake After Sleep Onset (WASO) Minimum [1, 3]: -185.50 min
- Latency to Persistent Sleep (LPS) Drug Effect Difference (LSM (STDE)) [1, 4]: −17.44 (6.292) Minutes
- Total Sleep Time (TST) Drug Effect Difference (LSM (STDE)) [1, 4]: 56.69 (17.665) Minutes
- Wake After Sleep Onset (WASO) Drug Effect Difference (LSM (STDE)) [1, 4]: −38.46 (8.222) Minutes
- Latency to Persistent Sleep LSM Change from Baseline (STDE) ([1]; Table 4 summary, 10 mg oral): −32.3 (4.6) min.
- Latency to Persistent Sleep Treatment Period Mean (SD) ([1]; Table 4 summary, 10 mg oral): 18.8 (15.6)) min.
- Latency to Persistent Sleep LSM Effect Difference (STDE) ([1]; Table 4 summary, versus placebo, 10 mg oral): −17.4 (6.3) min.
- Wake After Sleep Onset LSM Change from Baseline (STDE) ([1]; Table 6 summary, 10 mg oral): −50.0 (6.0) min.
- Wake After Sleep Onset Treatment Period Mean (SD) ([1]; Table 6 summary, 10 mg oral): 26.1 (16.2) min.
- Wake After Sleep Onset LSM Effect Difference (STDE) ([1]; Table 6 summary, versus placebo, 10 mg oral): −38.5 (8.2) min.
- Total Sleep Time LSM Change from Baseline (STDE) ([1]; Table 8 summary, 10 mg oral): 69.4 (12.9) min.
- Total Sleep Time Treatment Period Mean (SD) ([1]; Table 8 summary, 10 mg oral): 432.0 (35.1) min.
- Total Sleep Time LSM Effect Difference (STDE) ([1]; Table 8 summary, versus placebo, 10 mg oral): 56.7 min. and 56.7 (17.7) min.
- Latency to Persistent Sleep (LPS) Maximum [1, 5]: 58.0 min
- Latency to Persistent Sleep (LPS) Mean (SD) [1, 5]: 25.68 (15.691) Minutes
- Latency to Persistent Sleep (LPS) Median [1, 5]: 24.50 min
- Latency to Persistent Sleep (LPS) Minimum [1, 5]: 6.0 min
- Total Sleep Time (TST) Maximum [1, 5]: 469.0 min
- Total Sleep Time (TST) Mean (SD) [1, 5]: 424.00 (32.530) Minutes
- Total Sleep Time (TST) Median [1, 5]: 419.50 min
- Total Sleep Time (TST) Minimum [1, 5]: 358.5 min
- Wake After Sleep Onset (WASO) Maximum [1, 5]: 111.5 min
- Wake After Sleep Onset (WASO) Mean (SD) [1, 5]: 35.95 (29.815) Minutes
- Wake After Sleep Onset (WASO) Median [1, 5]: 29.50 min
- Wake After Sleep Onset (WASO) Minimum [1, 5]: 7.5 min
- Latency to Persistent Sleep (LPS) Maximum [1, 6]: 105.0 min
- Latency to Persistent Sleep (LPS) Mean (SD) [1, 6]: 20.73 (29.755) Minutes
- Latency to Persistent Sleep (LPS) Median [1, 6]: 15.00 min
- Latency to Persistent Sleep (LPS) Minimum [1, 6]: 0.0 min
- Total Sleep Time (TST) Maximum [1, 6]: 459.0 min
- Total Sleep Time (TST) Mean (SD) [1, 6]: 439.82 (19.572) Minutes
- Total Sleep Time (TST) Median [1, 6]: 443.00 min
- Total Sleep Time (TST) Minimum [1, 6]: 387.5 min
- Wake After Sleep Onset (WASO) Maximum [1, 6]: 52.0 min
- Wake After Sleep Onset (WASO) Mean (SD) [1, 6]: 25.68 (12.515) Minutes
- Wake After Sleep Onset (WASO) Median [1, 6]: 25.50 min
- Wake After Sleep Onset (WASO) Minimum [1, 6]: 4.0 min
- Latency to Persistent Sleep (LPS) Maximum [1, 7]: 46.0 min
- Latency to Persistent Sleep (LPS) Mean (SD) [1, 7]: 12.75 (14.425) Minutes
- Latency to Persistent Sleep (LPS) Median [1, 7]: 9.00 min
- Latency to Persistent Sleep (LPS) Minimum [1, 7]: 0.0 min
- Total Sleep Time (TST) Maximum [1, 7]: 458.5 min
- Total Sleep Time (TST) Mean (SD) [1, 7]: 416.88 (101.558) Minutes
- Total Sleep Time (TST) Median [1, 7]: 453.00 min
- Total Sleep Time (TST) Minimum [1, 7]: 166.0 min
- Wake After Sleep Onset (WASO) Maximum [1, 7]: 22.5 min
- Wake After Sleep Onset (WASO) Mean (SD) [1, 7]: 15.63 (4.299) Minutes
- Wake After Sleep Onset (WASO) Median [1, 7]: 15.75 min
- Wake After Sleep Onset (WASO) Minimum [1, 7]: 9.5 min
- Latency to Persistent Sleep (LPS) Maximum [1, 8]: 29.5 min
- Latency to Persistent Sleep (LPS) Mean (SD) [1, 8]: 12.50 (9.350) Minutes
- Latency to Persistent Sleep (LPS) Median [1, 8]: 11.50 min
- Latency to Persistent Sleep (LPS) Minimum [1, 8]: 0.5 min
- Total Sleep Time (TST) Maximum [1, 8]: 459.5 min
- Total Sleep Time (TST) Mean (SD) [1, 8]: 447.50 (8.594) Minutes
- Total Sleep Time (TST) Median [1, 8]: 450.25 min
- Total Sleep Time (TST) Minimum [1, 8]: 436.0 min
- Wake After Sleep Onset (WASO) Maximum [1, 8]: 38.5 min
- Wake After Sleep Onset (WASO) Mean (SD) [1, 8]: 23.44 (8.946) Minutes
- Wake After Sleep Onset (WASO) Median [1, 8]: 22.75 min
- Wake After Sleep Onset (WASO) Minimum [1, 8]: 12.5 min
- Latency to Persistent Sleep (LPS) LSM (STDE) [1, 9]: 18.14 (4.579) Minutes
- Latency to Persistent Sleep (LPS) Maximum [1, 9]: 70.25 min
- Latency to Persistent Sleep (LPS) Mean (SD) [1, 9]: 18.750 (15.6310) Minutes
- Latency to Persistent Sleep (LPS) Median [1, 9]: 15.000 min
- Latency to Persistent Sleep (LPS) Minimum [1, 9]: 2.00 min
- Total Sleep Time (TST) LSM (STDE) [1, 9]: 431.09 (12.869) Minutes
- Total Sleep Time (TST) Maximum [1, 9]: 464.00 min
- Total Sleep Time (TST) Mean (SD) [1, 9]: 432.026 (35.1088) Minutes
- Total Sleep Time (TST) Median [1, 9]: 443.500 min
- Total Sleep Time (TST) Minimum [1, 9]: 309.00 min
- Wake After Sleep Onset (WASO) LSM (STDE) [1, 9]: 25.28 (5.990) Minutes
- Wake After Sleep Onset (WASO) Maximum [1, 9]: 51.75 min
- Wake After Sleep Onset (WASO) Mean (SD) [1, 9]: 26.066 (16.2181) Minutes
- Wake After Sleep Onset (WASO) Median [1, 9]: 22.250 min
- Wake After Sleep Onset (WASO) Minimum [1, 9]: 11.00 min
- Latency to Persistent Sleep LSM decrease effect ([1]; treatment group versus placebo): 17.4 min
- Wake After Sleep Onset LSM decrease effect ([1]; treatment group versus placebo): 38.5 min
- AUCinf Maximum ([2]; 3 mg single oral dose): 176 ng·h/mL
- AUCinf Minimum ([2]; 3 mg single oral dose): 144 ng·h/mL
- AUCt Maximum ([2]; 3 mg single oral dose): 168 ng·h/mL
- AUCt Minimum ([2]; 3 mg single oral dose): 135 ng·h/mL
- Cmax Maximum ([2]; 3 mg single oral dose): 34 ng/mL
- Cmax Minimum ([2]; 3 mg single oral dose): 23 ng/mL
- t1/2 Minimum ([2]; 3 mg single oral dose): 2.1 h
- tmax Maximum ([2]; 3 mg single oral dose): 2.0 h
- AUCinf Maximum ([2]; 10 mg single oral dose): 557 ng·h/mL
- AUCinf Minimum ([2]; 10 mg single oral dose): 320 ng·h/mL
- AUCt Maximum ([2]; 10 mg single oral dose): 550 ng·h/mL
- AUCt Minimum ([2]; 10 mg single oral dose): 300 ng·h/mL
- Cmax Maximum ([2]; 10 mg single oral dose): 98 ng/mL
- Cmax Minimum ([2]; 10 mg single oral dose): 56 ng/mL
- t1/2 Maximum ([2]; 10 mg single oral dose): 3.0 h
- t1/2 Minimum ([2]; 10 mg single oral dose): 2.4 h
- tmax Maximum ([2]; 10 mg single oral dose): 2.0 h
- tmax Minimum ([2]; 10 mg single oral dose): 1.0 h
- AUCinf Maximum ([2]; 30 mg single oral dose): 714 ng·h/mL
- AUCinf Minimum ([2]; 30 mg single oral dose): 398 ng·h/mL
- AUCt Maximum ([2]; 30 mg single oral dose): 708 ng·h/mL
- AUCt Minimum ([2]; 30 mg single oral dose): 388 ng·h/mL
- Cmax Maximum ([2]; 30 mg single oral dose): 106 ng/mL
- Cmax Minimum ([2]; 30 mg single oral dose): 69 ng/mL
- t1/2 Maximum ([2]; 30 mg single oral dose): 3.2 h
- tmax Maximum ([2]; 30 mg single oral dose): 3.0 h
- tmax Minimum ([2]; 30 mg single oral dose): 1.0 h
- gastrointestinal absorption ([2]; across the three doses): rapid gastrointestinal absorption
- half-life ([2]; 3 mg, 3 mg single oral dose, read-out: t1/2 Mean (converted)): 2.3 h
- Tmax ([2]; 3 mg, 3 mg single oral dose, read-out: tmax Mean): 1.6 h
- Tmax ([2]; 3 mg, 3 mg single oral dose, read-out: tmax Median): 1.5 h
- half-life ([2]; 10 mg, 10 mg single oral dose, read-out: t1/2 Mean (converted)): 2.6 h
- Tmax ([2]; 10 mg, 10 mg single oral dose, read-out: tmax Mean): 1.5 h
- half-life ([2]; 30 mg, 30 mg single oral dose, read-out: t1/2 Mean (converted)): 2.8 h
- Tmax ([2]; 30 mg, 30 mg single oral dose, read-out: tmax Mean): 1.8 h
- Tmax ([2]; 30 mg, 30 mg single oral dose, read-out: tmax Median): 1.5 h
- half-life ([2]; 30 mg, 3, 10 and 30 mg single oral doses, read-out: t1/2, minimum to maximum across the three doses): 2.1 to 3.2 h
- Tmax ([2]; 30 mg, 3, 10 and 30 mg single oral doses, read-out: tmax, minimum to maximum across the three doses): 1 to 3 h
- AUC(0-t) ([2]; 3 mg single oral dose): 154 ng·h/mL
- Cmax ([2]; 3 mg single oral dose): 30 ng/mL
- AUC(0-inf) ([2]; 3 mg single oral dose): 161 ng·h/mL
- AUC(0-t) ([2]; 10 mg single oral dose): 438 ng·h/mL
- Cmax ([2]; 10 mg single oral dose): 77 ng/mL
- AUC(0-inf) ([2]; 10 mg single oral dose): 447 ng·h/mL
- AUC(0-t) ([2]; 30 mg single oral dose): 505 ng·h/mL
- Cmax ([2]; 30 mg single oral dose): 83 ng/mL
- AUC(0-inf) ([2]; 30 mg single oral dose): 512 ng·h/mL
- NOAEL (in vivo): 600 mg/kg
